Key:
[1] = system: Eotaxin-3 (CCL26) release in human whole blood stimulated with IL-4; assay: Human whole blood eotaxin-3 assay (IL-4 stimulated eotaxin-3 release); type: cell-based; conditions: Homo sapiens, 48 h, human whole blood stimulated with recombinant human IL-4, 48 h, geometric mean; for EC50: inhibition of eotaxin-3 release, given for test compounds with >80% Emax; for Emax: given for test compounds with <80% Emax
How it was run: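 Lithium-heparin human whole blood was preincubated with compound (4-fold serial dilution, 0.5% DMSO final) for 2 h at 37° C, then stimulated with recombinant human IL-4 at […] final for 48 h. Eotaxin-3 (CCL26) in the supernatant was measured by MSD immunoassay.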

[2] = molecular target: T1, Human STAT6 (truncated, aa122-658, with N-terminal His-tag) (Homo sapiens, UniProt P42226); assay: Surface plasmon resonance (SPR) assay, binding to human STAT6; conditions: Biacore 8K, 25° C, immobilized human STAT6 on CM5 chip, multi-cycle kinetics; geometric mean
T1 construct: Human STAT6 (truncated, aa122-658, with N-terminal His-tag, expressed in insect cells); His-tag (N); made in house; host or cells: insect cells
T1 sequence (P42226 122-658): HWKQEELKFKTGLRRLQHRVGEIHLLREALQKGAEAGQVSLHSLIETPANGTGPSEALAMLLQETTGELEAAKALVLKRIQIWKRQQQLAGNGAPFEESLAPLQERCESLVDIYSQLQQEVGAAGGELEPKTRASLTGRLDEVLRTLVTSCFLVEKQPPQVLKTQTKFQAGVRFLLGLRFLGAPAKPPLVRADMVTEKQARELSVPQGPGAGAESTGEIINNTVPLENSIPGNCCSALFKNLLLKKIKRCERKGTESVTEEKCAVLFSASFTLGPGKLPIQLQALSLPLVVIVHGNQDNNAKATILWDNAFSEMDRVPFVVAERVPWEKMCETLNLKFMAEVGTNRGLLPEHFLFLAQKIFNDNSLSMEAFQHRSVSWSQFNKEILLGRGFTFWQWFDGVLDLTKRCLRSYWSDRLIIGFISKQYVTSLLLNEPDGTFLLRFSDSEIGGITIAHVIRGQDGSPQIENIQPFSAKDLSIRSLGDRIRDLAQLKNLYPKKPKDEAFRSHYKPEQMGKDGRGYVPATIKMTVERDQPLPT
Description: Surface Plasmon Resonance Assay
Biacore instruments from the 8K-series (Cytiva) were used, and measurements were performed at 25° C. Human STAT6 (truncated, aa122-658, with N-terminal His-tag, expressed in insect cells) was immobilized in the active flow cells on a CM5 chip using amine-coupling (default settings) at 10 μg/ml in 10 mM acetate buffer pH 5.5, at a contact time of 120-420 sec. and a flow rate of 10 μl/min. Reference flow cells were deactivated using blank immobilization. PBS-P+(Cytiva) supplemented with 2% DMSO was used as running buffer, and solvent correction was applied. Compounds were tested by multi-cycle kinetics injections using a contact time of 60 sec., dissociation time of up to 300 sec., and a flow rate of 30 μl/min.
Solvent-corrected, reference-subtracted and blank-corrected data was processed and binding isotherms were fitted according to a single report point from each sensorgram (Standard: Late binding (5 sec. before injection end); alternative: Earlier report point according to binding profile). Data fitting was done both with unfixed Rmax and with Rmax fixed to the theoretical value* assuming 1:1 binding to allow processing of data from both weak and strong binders as well as to evaluate binding stoichiometry.
Positive controls were run at the beginning, during, and at the end of the screen to evaluate surface activity.
*Equation for calculation of the theoretical Rmax(Theoretical Rmax=(MW Analyte/MW Ligand)×immobilization level).

SMILES	EC50 [1] [nM]	Kd [2] [nM]	Emax [1] [%]
CNc1ccn(-c2ccnc3c2cc(CN2CC[C@@H](c4ccc(C(=O)N(C)C)cc4)[C@@H](F)C2)n3C)c(=O)c1 (single isomer, unassigned) [Example 1f7]	245	21.7	–
CNc1ccn(-c2ccnc3c2cc(CN2CCN(c4ccc(C(=O)N(C)C)cc4C)CC2)n3C)c(=O)c1 [Example 1m6, N,N,3-Trimethyl-4-(4-((1-methyl-4-(4-(methylamino)-2-oxopyridin-1 (2H)-yl)-1H-pyrrolo[2,3-b]pyridin-2-yl)methyl)piperazin-1-yl)benzamide]	74.7	16.6	–
CN(C)C(=O)c1ccc(C2CCN(Cc3cc4c(-n5ccc(N)c(COC(C)(C)C)c5=O)ccnc4n3C)CC2)cc1 [Example 1d39, 4-[1-[[4-[4-Amino-3-(tert-butoxymethyl)-2-oxo-1-pyridyl]-1-methyl-pyrrolo[2,3-b]pyridin-2-yl]methyl]-4-piperidyl]-N,N-dimethyl-benzamide]	961	98.7	–
CNc1ccn(-c2ccnc3c2cc(CN2CCC(c4ccc(C(=O)N(C)C)cc4)CC2=O)n3C)c(=O)c1 (centres unmarked) [Example 1f8, N,N-Dimethyl-4-[1-[[1-methyl-4-[4-(methylamino)-2-oxo-1-pyridyl]pyrrolo[2,3-b]pyridin-2-yl]methyl]-2-oxo-4-piperidyl]benzamide]	957	134	–
CNc1ccn(-c2ccnc3c2cc(CN2CC=C(c4ncc(C(=O)N(C)C)cc4F)CC2)n3C)c(=O)c1 [Example 1m67, 5-Fluoro-N,N-dimethyl-6-[1-[[1-methyl-4-[4-(methylamino)-2-oxo-1-pyridyl]pyrrolo[2,3-b]pyridin-2-yl]methyl]-3,6-dihydro-2H-pyridin-4-yl]pyridine-3-carboxamide]	80.1	33.4	–
CN(C)C(=O)c1ccc(C2CCN(Cc3cc4c(-n5ccc6[nH]nc(C(F)(F)F)c6c5=O)ccnc4n3C)C(=O)C2)cc1 (single isomer, unassigned) [Example 1ab1]	–	61	30 to 40
CNc1ccn(-c2ccnc3c2cc(CN2CCC(c4ccc(C(=O)N(C)C)cc4F)CC2)n3C)c(=O)c1 [Example 1d34, 3-Fluoro-N,N-dimethyl-4-[1-[[1-methyl-4-[4-(methylamino)-2-oxo-1-pyridyl]pyrrolo[2,3-b]pyridin-2-yl]methyl]-4-piperidyl]benzamide]	29.8	14.2	–
CNc1ccn(-c2ccnc3c2cc(CN2CC[C@@H](c4ccc(C(=O)N(C)C)cc4)[C@H](F)C2)n3C)c(=O)c1 (single isomer, unassigned) [Example 1f4]	205	32.2	–
CNc1ccn(-c2ccnc3c2cc(CN2CCN(c4ccc(C(=O)N(C)C)cc4C)C[C@H]2C)n3C)c(=O)c1 [Example 1m19, (R)—N,N,3-Trimethyl-4-(3-methyl-4-((1-methyl-4-(4-(methylamino)-2-oxopyridin-1 (2H)-yl)-1H-pyrrolo[2,3-b]pyridin-2-yl)methyl)piperazin-1-yl)benzamide]	122	23.5	–
CNc1ccn(-c2ccnc3c2cc(CN2CCC(c4ccc(C(=O)N(C)C)cc4OC)CC2)n3C)c(=O)c1 [Example 1d36, 3-Methoxy-N,N-dimethyl-4-[1-[[1-methyl-4-[4-(methylamino)-2-oxo-1-pyridyl]pyrrolo[2,3-b]pyridin-2-yl]methyl]-4-piperidyl]benzamide]	260	51.6	–
CNc1ccn(-c2ccnc3c2cc([C@@H](C)N2CCC(c4ccc(C(=O)N(C)C)cc4)CC2)n3C)c(=O)c1 (single isomer, unassigned) [Example 1m73]	26	12.1	–
CNc1ccn(-c2ccnc3c2cc(CN2CC=C(c4ccc(C(=O)N(C)C)cc4C)CC2)n3C)c(=O)c1 [Example 1m9, N,N,3-Trimethyl-4-(1-((1-methyl-4-(4-(methylamino)-2-oxopyridin-1 (2H)-yl)-1H-pyrrolo[2,3-b]pyridin-2-yl)methyl)-1,2,3,6-tetrahydropyridin-4-yl)benzamide]	32.1	11.8	–

Second part, led by results:

EC50 [1] [nM]	Kd [2] [nM]	SMILES	Emax [1] [%]
95.8	21	Cc1c(N)ccn(-c2ccnc3c2cc(CN2CCC(c4ccc(C(=O)N(C)C)cc4)CC2)n3C)c1=O [Example 1d21, 4-[1-[[4-(4-Amino-3-methyl-2-oxo-1-pyridyl)-1-methyl-pyrrolo[2,3-b]pyridin-2-yl]methyl]-4-piperidyl]-N,N-dimethyl-benzamide]	–
84.1	18.2	CNc1ccn(-c2ccnc3c2cc(CN2CCC(c4ccc(C(=O)N(C)C)cc4)CC2)n3C)c(=O)c1 [Example 1d3, N,N-Dimethyl-4-[1-[[1-methyl-4-[4-(methylamino)-2-oxo-1-pyridyl]pyrrolo[2,3-b]pyridin-2-yl]methyl]-4-piperidyl]benzamide]	–
99.3	16.1	CN(C)C(=O)c1ccc(C2CCN(Cc3cc4c(-n5ccc(N)c(Br)c5=O)ccnc4n3C)CC2)cc1 [Example 1d20, 4-[1-[[4-(4-Amino-3-bromo-2-oxo-1-pyridyl)-1-methyl-pyrrolo[2,3-b]pyridin-2-yl]methyl]-4-piperidyl]-N,N-dimethyl-benzamide]	–
119	12.5	CN(C)C(=O)c1ccc(C2CCN(Cc3cc4c(-n5ccc(N)cc5=O)ccnc4n3C)CC2)cc1 [Example 1d1, 4-[1-[[4-(4-Amino-2-oxo-1-pyridyl)-1-methyl-pyrrolo[2,3-b]pyridin-2-yl]methyl]-4-piperidyl]-N,N-dimethyl-benzamide]	–
–	69.2	CNc1ccn(-c2ccnc3c2cc(CN2CCC(c4ccc(C(=O)N(C)C)cc4C)CC2)n3C)c(=O)c1 [Example 1d25, N,N,3-Trimethyl-4-[1-[[1-methyl-4-[4-(methylamino)-2-oxo-1-pyridyl]pyrrolo[2,3-b]pyridin-2-yl]methyl]-4-piperidyl]benzamide]	70 to 80
193	20.4	CN(C)C(=O)c1ccc(C2CCN(Cc3cc4c(-n5ccc6[nH]nc(C(F)(F)F)c6c5=O)ccnc4n3C)CC2)cc1 [Example 1ab3, N,N-Dimethyl-4-(1-((1-methyl-4-(4-oxo-3-(trifluoromethyl)-1,4-dihydro-5H-pyrazolo[4,3-c]pyridin-5-yl)-1H-pyrrolo[2,3-b]pyridin-2-yl)methyl)piperidin-4-yl)benzamide]	–
–	75.4	CN(C)C(=O)c1ccc(C2CCN(Cc3cc4c(-n5cc(F)c(N)nc5=O)ccnc4n3C)CC2)cc1 [Example 1ac2, 4-(1-((4-(4-Amino-5-fluoro-2-oxopyrimidin-1 (2H)-yl)-1-methyl-1H-pyrrolo[2,3-b]pyridin-2-yl)methyl)piperidin-4-yl)-N,N-dimethylbenzamide]	70 to 80
–	21.8	CN(C)C(=O)c1ccc(C2CCN(Cc3cc4c(-n5ccc6c(c5=O)CCN6)ccnc4n3C)CC2)cc1 [Example 1d23, N,N-Dimethyl-4-[1-[[1-methyl-4-(4-oxo-2,3-dihydro-1H-pyrrolo[3,2-c]pyridin-5-yl)pyrrolo[2,3-b]pyridin-2-yl]methyl]-4-piperidyl]benzamide]	70 to 80
88.4	25	COCc1c(N)ccn(-c2ccnc3c2cc(CN2CCC(c4ccc(C(=O)N(C)C)cc4)CC2)n3C)c1=O [Example 1d30, 4-[1-[[4-[4-Amino-3-(methoxymethyl)-2-oxo-1-pyridyl]-1-methyl-pyrrolo[2,3-b]pyridin-2-yl]methyl]-4-piperidyl]-N,N-dimethyl-benzamide]	–
221	20.9	[2H]C([2H])([2H])N(C(=O)c1ccc(C2CCN(Cc3cc4c(-n5ccc(NC)cc5=O)ccnc4n3C)CC2)cc1)C([2H])([2H])[2H] [Example 1d4, 4-[1-[[1-Methyl-4-[4-(methylamino)-2-oxo-1-pyridyl]pyrrolo[2,3-b]pyridin-2-yl]methyl]-4-piperidyl]-N,N-bis(trideuteriomethyl)benzamide]	–

From patent publication US20260001893A1, “SMALL MOLECULE MODULATORS OF STAT6” (Gilead Sciences, Inc., priority 2024, published 2026)
